Measured values: patent publication US8435978B2, “Substituted sulfonamide compounds” (Gruenenthal GmbH, priority 2006, dated 2013)
Counter-ions that a name gives are not always drawn.

How the values were obtained:
human B1R receptor = biological target: T1, human B1R receptor (Homo sapiens, UniProt P46663); test: Functional study on the bradykinin receptor 1 (B1R), FLIPR Ca2+ assay, hB1R cells; assay type: cell-based; conditions: agonist Lys-Des-Arg9-bradykinin 0.5 nM, % inhibition compared with the maximum achievable inhibition; for inhibition at 10 µM: CHO-K1, test substance 10 μM, read-out: B1R Antagonism, human [10 μM] % Inhibition; for B1R Antagonism, human [10 μM] % Inhibition: test substance 10 μM, hB1R CHO K1 cells
T1 construct: host or cells: CHO K1 cells (Chinese hamster ovary), stably transfected
T1 sequence (P46663 1-353): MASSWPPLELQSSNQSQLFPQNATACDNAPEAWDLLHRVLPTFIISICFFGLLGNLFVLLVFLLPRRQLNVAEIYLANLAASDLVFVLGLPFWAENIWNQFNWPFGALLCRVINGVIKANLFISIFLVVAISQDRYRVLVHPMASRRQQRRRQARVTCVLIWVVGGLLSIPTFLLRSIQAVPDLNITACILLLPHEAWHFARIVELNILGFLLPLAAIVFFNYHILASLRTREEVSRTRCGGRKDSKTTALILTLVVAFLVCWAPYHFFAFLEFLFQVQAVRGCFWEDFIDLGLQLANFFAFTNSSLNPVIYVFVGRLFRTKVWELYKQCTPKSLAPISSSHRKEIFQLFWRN
Method in brief: (§1)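 FLIPR Ca2+ assay in recombinant CHO K1 cells (human or rat B1R), Fluo-4 dye; 10 μM compound, 10 min, then EC-level agonist per species (0.5 nM Lys-Des-Arg9-BK human / 100 nM Des-Arg9-BK rat). Output: % inhibition vs maximum.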

B1R receptor of the rat = biological target: T2, B1R receptor of the rat (Rattus norvegicus, UniProt P97583); test: Functional study on the bradykinin receptor 1 (B1R), FLIPR Ca2+ assay, rB1R cells; assay type: cell-based; conditions: agonist Des-Arg9-bradykinin 100 nM, % inhibition compared with the maximum achievable inhibition; for inhibition at 10 µM: CHO-K1, test substance 10 μM, read-out: B1R Antagonism, rat [10 μM] % Inhibition; for B1R Antagonism, rat [10 μM] % Inhibition: test substance 10 μM, rB1R CHO K1 cells
T2 construct: host or cells: CHO K1 cells (Chinese hamster ovary), stably transfected
T2 sequence (P97583 1-337): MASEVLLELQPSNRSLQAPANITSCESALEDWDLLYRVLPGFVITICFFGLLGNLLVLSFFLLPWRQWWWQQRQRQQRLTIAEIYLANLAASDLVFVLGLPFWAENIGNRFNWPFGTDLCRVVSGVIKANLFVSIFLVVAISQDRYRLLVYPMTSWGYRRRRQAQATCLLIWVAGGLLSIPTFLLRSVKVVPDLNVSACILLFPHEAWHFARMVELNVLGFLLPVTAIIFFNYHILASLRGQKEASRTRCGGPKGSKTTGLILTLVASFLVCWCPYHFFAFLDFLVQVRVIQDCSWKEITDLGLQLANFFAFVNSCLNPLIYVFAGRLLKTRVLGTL
Method in brief: as §1

Row | inhibition at 10 µM (human B1R receptor) [%] | inhibition at 10 µM (B1R receptor of the rat) [%] | B1R Antagonism, human [10 μM] % Inhibition (human B1R receptor) [%] | B1R Antagonism, rat [10 μM] % Inhibition (B1R receptor of the rat) [%] | Compound
1 | 90.1 | 100 | – | – | COc1cc(C)c(S(=O)(=O)N2CCCC2COCC(=O)N2CC[C@@H](N(C)C)C2)c(C)c1 (stereo partly drawn) [Example 476, 1-((R)-3-(dimethylamino)pyrrolidin-1-yl)-2-((1-(4-methoxy-2,6-dimethylphenylsulfonyl)pyrrolidin-2-yl)methoxy)ethanone]
2 | 99.6 | 106 | – | – | COc1cc(C)c(S(=O)(=O)N2CCCCC2COCC(=O)NCc2ccc(CN(C)C)cc2)c(C)c1 (stereo not drawn) [Example 11, N-(4-dimethylaminomethyl-benzyl)-2-[1-(4-methoxy-2,6-dimethyl-phenylsulfonyl)-piperidin-2-ylmethoxy]-acetamide]
3 | 104 | 100 | – | – | CN1CCC(N2CCN(C(=O)COCC3CCCCN3S(=O)(=O)c3ccc4c(c3)CCCC4)CC2)CC1 (stereo not drawn) [Example 179, 1-(4-(1-methylpiperidin-4-yl)piperazin-1-yl)-2-((1-(5,6,7,8-tetrahydronaphthalen-2-ylsulfonyl)piperidin-2-yl)methoxy)ethanone dihydrochloride]
4 | – | – | 53.64 | 82.89 | COc1ccc(S(=O)(=O)N2Cc3ccccc3CC2COCC(=O)N2CCC(CCN3CCCCC3)CC2)cc1 (stereo not drawn) [Example 69]
5 | 104 | 98.1 | – | – | COc1cc(C)c(S(=O)(=O)N2CCCC2COCC(=O)N2CCN(c3ccncc3)CC2)c(C)c1 (stereo not drawn) [Example 274, 2-((1-(4-methoxy-2,6-dimethylphenylsulfonyl)pyrrolidin-2-yl)methoxy)-1-(4-(pyridin-4-yl)piperazin-1-yl)ethanone]
6 | 102 | 58.1 | – | – | CN1CCC(N2CCN(C(=O)COCC3CCCCN3S(=O)(=O)c3ccc(Cl)c(C(F)(F)F)c3)CC2)CC1 (stereo not drawn) [Example 115, 2-((1-(4-chloro-3-(trifluoromethyl)phenylsulfonyl)piperidin-2-yl)methoxy)-1-(4-(1-methylpiperidin-4-yl)piperazin-1-yl)ethanone]
7 | 28.1 | 81.4 | – | – | COc1cc(C)c(S(=O)(=O)N2CCCCC2COCC(=O)Nc2ccc(N3CCCC3)cc2)c(C)c1 (stereo not drawn) [Example 409, 2-((1-(4-methoxy-2,6-dimethylphenylsulfonyl)piperidin-2-yl)methoxy)-N-(4-(pyrrolidin-1-yl)phenyl)acetamide]
8 | 105 | 100 | – | – | COc1cc(C)c(S(=O)(=O)N2CCCCC2COCC(=O)N2CCC(c3nc(-c4ccncc4)no3)CC2)c(C)c1 (stereo not drawn) [Example 103, 2-((1-(4-methoxy-2,6-dimethylphenylsulfonyl)piperidin-2-yl)methoxy)-1-(4-(3-(pyridin-4-yl)-1,2,4-oxadiazol-5-yl)piperidin-1-yl)ethanone]
9 | 101 | 100 | – | – | COc1cc(C)c(S(=O)(=O)N2CCCCC2COCC(=O)NCCCN2CCN(Cc3ccccc3)CC2)c(C)c1 (stereo not drawn) [Example 411, N-(3-(4-benzylpiperazin-1-yl)propyl)-2-((1-(4-methoxy-2,6-dimethylphenylsulfonyl)piperidin-2-yl)methoxy)acetamide]
10 | 100 | 101 | – | – | O=C(COCC1CCCCN1S(=O)(=O)c1c(Cl)cccc1Cl)N1CCCC1Cc1ccccn1 (stereo not drawn) [Example 456, 2-((1-(2,6-dichlorophenylsulfonyl)piperidin-2-yl)methoxy)-1-(2-(pyridin-2-ylmethyl)pyrrolidin-1-yl)ethanone]
11 | 102 | 97.9 | – | – | COc1ccc(C(CNC(=O)COCC2CCCCN2S(=O)(=O)c2c(C)cc(OC)cc2C)N2CCCC2)cc1 (stereo not drawn) [Example 252, 2-((1-(4-methoxy-2,6-dimethylphenylsulfonyl)piperidin-2-yl)methoxy)-N-(2-(4-methoxyphenyl)-2-(pyrrolidin-1-yl)ethyl)acetamide]
12 | – | – | 59.22 | 92.36 | COc1cc(C)c(S(=O)(=O)N2CCCCC2COCC(=O)NCC(c2ccc(C(F)(F)F)cc2)N2CCOCC2)c(C)c1 (stereo not drawn) [Example 249, 2-((1-(4-methoxy-2,6-dimethylphenylsulfonyl)piperidin-2-yl)methoxy)-N-(2-morpholin-2-(4-(trifluoromethyl)phenyl)ethyl)acetamide]
13 | 104 | 100 | – | – | CN1CCN(C2CCN(C(=O)COCC3CCCN3S(=O)(=O)c3c(Cl)cc(Cl)cc3Cl)CC2)CC1 (stereo not drawn) [Example 330, 1-(4-(4-methylpiperazin-1-yl)piperidin-1-yl)-2-((1-(2,4,6-trichlorophenylsulfonyl)pyrrolidin-2-yl)methoxy)ethanone]
14 | 97.3 | 93.4 | – | – | COc1cc(C)c(S(=O)(=O)N2CCCCC2COCC(=O)Nc2ccc(CN3CCC(C)CC3)cc2)c(C)c1 (stereo not drawn) [Example 421, 2-((1-(4-methoxy-2,6-dimethylphenylsulfonyl)piperidin-2-yl)methoxy)-N-(4-((4-methylpiperidin-1-yl)methyl)phenyl)acetamide]

Second part, the compound before the results:

Row | Compound | inhibition at 10 µM (human B1R receptor) [%] | inhibition at 10 µM (B1R receptor of the rat) [%] | B1R Antagonism, human [10 μM] % Inhibition (human B1R receptor) [%] | B1R Antagonism, rat [10 μM] % Inhibition (B1R receptor of the rat) [%]
15 | CN1CCC(N2CCN(C(=O)COCC3CCCCN3S(=O)(=O)c3ccc(Cl)cc3Cl)CC2)CC1 (stereo not drawn) [Example 120, 2-((1-(2,4-dichlorophenylsulfonyl)piperidin-2-yl)methoxy)-1-(4-(1-methylpiperidin-4-yl)piperazin-1-yl)ethanone] | 103 | 103 | – | –
16 | COc1cc(C)c(S(=O)(=O)N2CCCCC2COCC(=O)N2CCC[C@H]2CN2CCCC2)c(C)c1 (stereo partly drawn) [Example 374, 2-((1-(4-methoxy-2,6-dimethylphenylsulfonyl)piperidin-2-yl)methoxy)-1-((S)-2-(pyrrolidin-1-ylmethyl)pyrrolidin-1-yl)ethanone] | 80.8 | 102 | – | –
17 | COc1ccc(S(=O)(=O)N2CCCCC2COCC(=O)N2CCN(CCOc3ccccc3)CC2)cc1 (stereo not drawn) [Example 558, 2-((1-(4-methoxyphenylsulfonyl)piperidin-2-yl)methoxy)-1-(4-(2-phenoxyethyl)piperazin-1-yl)ethanone] | -3.53 | 103 | – | –
18 | COc1cc(C)c(S(=O)(=O)N2CCCCC2COCC(=O)N(Cc2ccc(N(C)C)cc2)C(C)C)c(C)c1 (stereo not drawn) [Example 367, N-(4-(dimethylamino)benzyl)-N-isopropyl-2-((1-(4-methoxy-2,6-dimethylphenylsulfonyl)piperidin-2-yl)methoxy)acetamide] | 20.1 | 103 | – | –
19 | COc1cc(C)c(S(=O)(=O)N2CCCCC2COCC(=O)N2CCN(c3nc4ccccc4s3)CC2)c(C)c1 (stereo not drawn) [Example 526, 1-(4-(benzo[d]thiazol-2-yl)piperazin-1-yl)-2-((1-(4-methoxy-2,6-dimethylphenylsulfonyl)piperidin-2-yl)methoxy)ethanone] | 73.3 | 102 | – | –
20 | COc1cc(C)c(S(=O)(=O)N2CCCCC2COCC(=O)N2CCN(c3ccc(C)c(C)c3)CC2)c(C)c1 (stereo not drawn) [Example 512, 1-(4-(3,4-dimethylphenyl)piperazin-1-yl)-2-((1-(4-methoxy-2,6-dimethylphenylsulfonyl)piperidin-2-yl)methoxy)ethanone] | 93 | 102 | – | –
21 | COc1cc(C)c(S(=O)(=O)N2CCCC2COCC(=O)N2CCN(c3ccc(C)c(C)c3)CC2)c(C)c1 (stereo not drawn) [Example 347, 1-(4-(3,4-dimethylphenyl)piperazin-1-yl)-2-((1-(4-methoxy-2,6-dimethylphenylsulfonyl)pyrrolidin-2-yl)methoxy)ethanone] | 56.6 | 103 | – | –
22 | COc1ccc(CN2CCN(C(=O)COCC3CCCCN3S(=O)(=O)c3c(C)cc(OC)cc3C)CC2)cc1 (stereo not drawn) [Example 386, 2-((1-(4-methoxy-2,6-dimethylphenylsulfonyl)piperidin-2-yl)methoxy)-1-(4-(4-methoxybenzyl)piperazin-1-yl)ethanone] | 101 | 97.9 | – | –
23 | COc1cc(C)c(S(=O)(=O)N2CCCCC2COCC(=O)Nc2[nH]ncc2-c2ccc(OC)c(OC)c2)c(C)c1 (stereo not drawn) [Example 538, N-(4-(3,4-dimethoxyphenyl)-1H-pyrazol-5-yl)-2-((1-(4-methoxy-2,6-dimethylphenylsulfonyl)piperidin-2-yl)methoxy)acetamide] | -11.8 | 106 | – | –
24 | 2-((1-(2,6-dichlorophenylsulfonyl)piperidin-2-yl)methoxy)-N-(4-(dimethylamino)butyl)acetamide [Example 441] | – | – | 103.96 | 98.36
